Results published in patent US20240300934A1, “COMPOUNDS FOR MODULATING MYCOBACTERIUM TUBERCULOSIS RESPONSE” (priority 2021, published 2024).

How the values were obtained:
Mtb in J774 cells = test: Mtb growth in J774 macrophage-like cells (mKO fluorescence); type: cell-based, Mycobacterium tuberculosis
In short: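 J774 cells infected with log-phase mKO-expressing Mtb (OD600=0.2 suspension), compounds dosed from 20 μM final in two-fold dilutions to 0.039 μM, or single 10 μM in 96-well format; 37° C., 5% CO2, 6 days. mKO fluorescence read, growth expressed as percent of DMSO control.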

[1] = Human liver microsomal stability; type: in vitro ADME
[2] = Mouse pharmacokinetics, single oral dose; type: in vivo, CD-1 mice
Description: Blood samples were collected in K2EDTA coated tubes pre-dose, 0.5, 1, 3 and 5 hrs post-dose, placed on ice, and centrifuged to recover plasma. The recovered plasma was kept at −80° C. as needed prior to analysis, which was performed as previously described (Wang et al, 2020). In brief, a Sciex Applied Biosystems Qtrap 4000 triple-quadrupole mass spectrometer coupled to an Agilent 1260 HPLC system was used for HPLC coupled to tandem mass spectrometry (LC-MS/MS) quantitative analysis of the samples, with chromatography attained using an Agilent Zorbax SB-C8 column (2.1×30 mm; particle size, 3.5 μm) and a reverse phase gradient elution. The aqueous mobile phase consisted of Milli-Q deionized water with 0.1% formic acid (A), while the organic mobile phase was 0.1% formic acid in acetonitrile (B). The gradient set-up was as follows: 5-90% B over 2 mins, 1 min at 90% B, then an immediate drop to 5% B and an additional 1 min at 5% B. Quantification of molecules was carried out via multiple-reaction monitoring of parent/daughter transitions in electrospray positive-ionization mode, and sample analyses accepted if quality control and standard samples had concentrations within 20% of the nominal concentration. Preparation of compounds for generation of standard curves and quality control spiking solutions were performed as previously described (Wang et al, 2020). Data were processed using Analyst software (Version 1.6.2; Applied Biosystems Sciex).

Mouse plasma stability = type: in vitro ADME; details: after 5 h incubation
Description: (§1) Assays examining mouse and human liver microsomal stability, kinetic aqueous solubility, mouse and human plasma protein binding and stability, and human cytochrome P450 inhibition characteristics of the compounds were run by BioDuro, Incorporated, using standard protocols as previously described (Wang et al, 2020). hERG inhibition assays were also performed by BioDuro, Incorporated.

Human plasma stability = type: in vitro ADME; details: after 5 h incubation
Description: as §1

human CYP 450 2C9 = human CYP 450 2C9 (Homo sapiens, UniProt P11712); test: Human cytochrome P450 inhibition, 2C9; type: in vitro ADME; details: 10 μM
Mtb [3] = test: C3HeB/FeJ murine Mtb infection model; type: in vivo, C3HeB/FeJ mice
Description: C3HeB/FeJ wild type mice (Jackson Laboratories) were infected intranasally with 10^3 CFUs of Mtb (35 μl), under light anesthesia with 2% isoflurane (MacGilvary et al, 2019; Sukumar et al, 2014; Tan et al, 2013). […] The next day the suspension was homogenized by bead beating with 5 mm steel beads in a TOMY microtube mixer (2×20 s), and stored at 4° C. until use. […] Administration began at two or six weeks post-infection as indicated. At time of sacrifice, the left lobe and accessory right lobe of the lung were homogenized in PBS+0.05% Tween 80 and serial dilutions plated on 7H10 agar plates with 100 μg/ml cycloheximide for bacterial load determination. The remaining three right lobes were fixed in 4% PFA in PBS. One lobe was used for histological analysis by standard hematoxylin and eosin (H&E) staining (Tufts Comparative Pathology Services). A Nikon Eclipse E400 with a SPOT insight color digital camera was used to image the histology samples.

Mtb [4] = test: Mtb growth assay in standard 7H9 media (OD600); details: 10 μM
Description: Bacterial growth was tracked by measuring OD600 every 3 days for 12 days. […] Bacterial growth was tracked by measurement of D600 every 3 days over 12 days.

[5] = 250 mg/kg oral gavage 5 times a week for 2 weeks, started 2 weeks post-infection
[6] = 250 mg/kg oral gavage for two or four weeks, started 6 weeks post-infection

Chain of human CYP 450 2C9 (P11712 whole entry): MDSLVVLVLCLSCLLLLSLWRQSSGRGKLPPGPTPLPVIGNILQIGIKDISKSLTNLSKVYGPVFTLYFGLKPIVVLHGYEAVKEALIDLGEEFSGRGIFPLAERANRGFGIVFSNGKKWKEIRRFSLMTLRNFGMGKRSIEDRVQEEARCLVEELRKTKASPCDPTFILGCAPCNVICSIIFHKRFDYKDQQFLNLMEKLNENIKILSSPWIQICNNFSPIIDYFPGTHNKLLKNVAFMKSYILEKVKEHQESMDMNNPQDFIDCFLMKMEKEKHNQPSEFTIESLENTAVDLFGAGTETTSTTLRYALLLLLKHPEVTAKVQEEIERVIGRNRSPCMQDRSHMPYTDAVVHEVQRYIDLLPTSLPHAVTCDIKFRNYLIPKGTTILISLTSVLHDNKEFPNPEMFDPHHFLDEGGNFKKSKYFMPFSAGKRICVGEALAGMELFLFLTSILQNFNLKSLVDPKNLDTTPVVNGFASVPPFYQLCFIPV

CCSc1ncc(CN2CCN(c3nc4ccccc4o3)CC2)cn1 [Compound C6, 2-(4-((2-(ethylthio)pyrimidin-5-yl)methyl)piperazin-1-yl)benzo[d]oxazole]
% Reduction of Intracellular Infection (J774.1 cells) at 10 μM cmpd (Mtb in J774 cells; 10 μM compound, J774.1 cells): 54.2 ± 2.6% | Mtb growth in J774 cells (in words) (Mtb in J774 cells; 10 μM, 6 days post-infection): Mtb growth inhibition | inhibition at 10 µM (Mtb in J774 cells; Mycobacterium tuberculosis, J774CELLS, J774, 144 h, read-out: % inhibition compared to Rif in J774 at 10 μM): 40.5 ± 0.6% | inhibition at 20 µM (Mtb in J774 cells; Mycobacterium tuberculosis, J774CELLS, J774, 144 h, read-out: % inhibition compared to Rif in J774 at 20 μM): 53.6 ± 2.7% | Inhibition of Mtb growth in J774 cells phenotype (Mtb in J774 cells; compared to C6): Y | t1/2 in human liver microsomes [1]: 37.6 min | Kp at 5 h ([2]; female, CD-1, mouse, single 25 mg/kg po dose, 5 h, lung vs plasma, read-out: Mouse PK Clung/Cplasma at t = 5 h): 0.88 | AUC0-5 h ([2]; single 5 mg/kg oral (po) dose, plasma, CD-1 mice (n=2)): 5481 ng·h/mL | Mouse PK AUC0-5h ([2]; single 25 mg/kg po dose, plasma, CD-1 mice): 25713 ng·h/mL | stability in mouse plasma, % remaining (Mouse plasma stability): > 99.9% | stability in human plasma, % remaining (Human plasma stability): 94.6% | % inhibition of CYP 2C9 (human CYP 450 2C9): 25.7% | Mtb growth in lungs (CFU), short-term infection (Mtb [3]; [5]): significantly inhibited Mtb growth in the mice lungs | lung histology, short-term infection (Mtb [3]; [5]): less cellular infiltration | lung bacterial load, longer-term infection (Mtb [3]; [6]): significant decrease in bacterial load | lung histopathology, longer-term infection (Mtb [3]; [6]): improved histopathology | Mtb growth in standard 7H9 media (Mtb [4]): no effect
